# Source: US20230146455A1, “TREATMENT OF INFLAMMATORY DISEASES WITH PEPTIDES AND PHARMACEUTICAL COMPOSITIONS” (Yuyu Pharma, Inc., priority 2020, published 2023)
# “And” between values parts separate entries of the source, which are not always exact repeats. Identical values can stand only once. Where a SMILES comes first, the peptide text is derived from it. [ ]: non-standard residue; d: D form. Hyp = O=C(O)[C@@H]1C[C@@H](O)CN1
# Tested on: IFN-gamma
# Experiment: Example 9 Luminex, LPS hPBMCs: IFN-gamma
# Format: cell-based, human
# Method: Treatment Human PBMCs were pretreated with YY-101, YDE-011 and YDE-043 or reference compound; Xiidra® at various concentration (ranging from 1 nM to 100 uM) for 2 h before stimulation. An equal volume of 0.5% DMSO was used as a vehicle control. Then, the cells were treated with LPS at 5 ug/ml. The supernatants from treated cells were harvested at 24 h and placed in a 96 well for Luminex cytokine & chemokine profiling using a Luminex 200 multiplex assay (Luminex; R&D system, USA).
# The main study arm with triplicate wells per group in a 24-well plate: • 1. Blank • 2. PBMC: 0.5% DMSO • 3. PBMC+LPS (5 ug/ml) • 4. PBMC+YY-101 100 uM • 5. PBMC+YY-101 10 uM • 6. PBMC+YY-101 1 uM • 7. PBMC+YY-101 0.1 uM • 8. PBMC+YY-101 0.01 uM • 9. PBMC+LPS (5 ug/ml)+Xiidra®100 uM • 10. PBMC+LPS (5 ug/ml)+Xiidra® 10 uM • 11. PBMC+LPS (5 ug/ml)+Xiidra® 1 uM • 12. PBMC+LPS (5 ug/ml)+Xiidra®0.1 uM • 13. PBMC+LPS (5 ug/ml)+Xiidra®0.01 uM • 14. PBMC+LPS (5 ug/ml)+Xiidra®0.001 uM • 15. PBMC+LPS (5 ug/ml)+YY-101 100 uM • 16. PBMC+LPS (5 ug/ml)+YY-101 10 uM • 17. PBMC+LPS (5 ug/ml)+YY-101 1 uM • 18. PBMC+LPS (5 ug/ml)+YY-101 0.1 uM • 19. PBMC+LPS (5 ug/ml)+YY-101 0.01 uM • 20. PBMC+LPS (5 ug/ml)+YY-101 0.001 uM • 21. PBMC+LPS (5 ug/ml)+YDE-011 100 uM • 22. PBMC+LPS (5 ug/ml)+YDE-011 10 uM • 23. PBMC+LPS (5 ug/ml)+YDE-011 1 uM • 24. PBMC+LPS (5 ug/ml)+YDE-011 0.1 uM • 25. PBMC+LPS (5 ug/ml)+YDE-011 0.01 uM • 26. PBMC+LPS (5 ug/ml)+YDE-011 0.001 uM • 27. PBMC+LPS (5 ug/ml)+YDE-043 100 uM • 28. PBMC+LPS (5 ug/ml)+YDE-043 10 uM • 29. PBMC+LPS (5 ug/ml)+YDE-043 1 uM • 30. PBMC+LPS (5 ug/ml)+YDE-043 0.1 uM • 31. PBMC+LPS (5 ug/ml)+YDE-043 0.01 uM • 32. PBMC+LPS (5 ug/ml)+YDE-043 0.001 uM
# Multiplex assay was used to measure 30 cytokines and chemokines. The 1:2, 1:10 and 1:200 diluted cell supernatant and serial dilution of the standard were dispensed into a 96 well plate at 50 ul/well. Then, the pre-mixed cocktail of antibody-coated magnetic beads was dispensed at 50 ul/well and incubated at room temperature for 2 h in a horizontal orbital microplate shaker at 800±500 rpm. The beads were washed using a magnetic device to prevent loss. The biotin-antibody was dispensed in 50 ul of each well and incubated at room temperature for 1 h in a shaker at 800±500 rpm. After washing, streptavidin-PE was added at 50 ul/well and incubated at room temperature for 30 min in a shaker under the same conditions. Finally, after washing, wash buffer (100 ul/well) was added to the plate and incubated in a shaker for 2 min. The Luminex™ 200 setting were set according to the manufacturer's protocol. The data was calculated with a standard five-parameter logistic nonlinear regression analysis of the data (xPonent software 4.2, USA). The levels of cytokine/chemokine are normalized to the live cell counts (1×10^5 cells/mL) and presented as concentrations per mL (pg/mL or ng/mL).
# [1] = PBMC + LPS(5 ug/ml) + test article 0.001 uM, Mean
# [2] = PBMC + LPS(5 ug/ml) + test article 0.001 uM, single replicates
# [3] = PBMC + LPS(5 ug/ml) + test article 0.01 uM, Mean
# [4] = PBMC + LPS(5 ug/ml) + test article 0.01 uM, single replicates
# [5] = PBMC + LPS(5 ug/ml) + test article 0.1 uM, Mean
# [6] = PBMC + LPS(5 ug/ml) + test article 0.1 uM, single replicates
# [7] = PBMC + LPS(5 ug/ml) + test article 1 uM, Mean
# [8] = PBMC + LPS(5 ug/ml) + test article 1 uM, single replicates
# [9] = PBMC + LPS(5 ug/ml) + test article 10 uM, Mean
# [10] = PBMC + LPS(5 ug/ml) + test article 10 uM, single replicates
# [11] = PBMC + LPS(5 ug/ml) + test article 100 uM, Mean
# [12] = PBMC + LPS(5 ug/ml) + test article 100 uM, single replicates
# [13] = PBMC + test article 0.01 uM, no LPS, Mean
# [14] = PBMC + test article 0.01 uM, no LPS, single replicates
# [15] = PBMC + test article 0.1 uM, no LPS, Mean
# [16] = PBMC + test article 0.1 uM, no LPS, single replicates
# [17] = PBMC + test article 1 uM, no LPS, Mean
# [18] = PBMC + test article 1 uM, no LPS, single replicates
# [19] = PBMC + test article 10 uM, no LPS, Mean
# [20] = PBMC + test article 10 uM, no LPS, single replicates
# [21] = PBMC + test article 100 uM, no LPS, Mean
# [22] = PBMC + test article 100 uM, no LPS, single replicates
smiles,measurement,setting,value
CC(C)C[C@H](NC(=O)CNC(=O)[C@H](CC(C)C)NC(=O)[C@H](CCC(N)=O)NC(=O)CNC(=O)[C@@H]1C[C@@H](O)CN1)C(=O)N[C@@H](C)C(=O)NCC(=O)N1CCC[C@H]1C(=O)N[C@@H](CCCCN)C(=O)O [YDE-011] (H-[Hyp]GQLGLAGPK-OH),Concentration (IFN-gamma),[1],773.0 pg/mL
same,conc/live cell (IFN-gamma),[1],143.6 pg/10^5
same,Concentration (IFN-gamma),[2],624.6 pg/mL and 730.3 pg/mL and 964.1 pg/mL
same,conc/live cell (IFN-gamma),[2],138.8 pg/10^5 and 125.9 pg/10^5 and 166.2 pg/10^5
same,Concentration (IFN-gamma),[3],792.2 pg/mL
same,conc/live cell (IFN-gamma),[3],135.8 pg/10^5
same,Concentration (IFN-gamma),[4],773.0 pg/mL and 753.6 pg/mL and 849.9 pg/mL
same,conc/live cell (IFN-gamma),[4],124.7 pg/10^5 and 147.8 pg/10^5 and 134.9 pg/10^5
same,Concentration (IFN-gamma),[5],812.6 pg/mL
same,conc/live cell (IFN-gamma),[5],141.6 pg/10^5
same,Concentration (IFN-gamma),[6],892.0 pg/mL and 753.6 pg/mL and 792.3 pg/mL
same,conc/live cell (IFN-gamma),[6],135.1 pg/10^5 and 150.7 pg/10^5 and 139.0 pg/10^5
same,Concentration (IFN-gamma),[7],987.2 pg/mL
same,conc/live cell (IFN-gamma),[7],196.0 pg/10^5
same,Concentration (IFN-gamma),[8],1088.2 pg/mL and 909.1 pg/mL and 964.1 pg/mL
same,conc/live cell (IFN-gamma),[8],197.9 pg/10^5 and 189.4 pg/10^5 and 200.9 pg/10^5
same,Concentration (IFN-gamma),[9],841.5 pg/mL
same,conc/live cell (IFN-gamma),[9],158.5 pg/10^5
same,Concentration (IFN-gamma),[10],973.6 pg/mL and 861.4 pg/mL and 689.4 pg/mL
same,conc/live cell (IFN-gamma),[10],180.3 pg/10^5 and 148.5 pg/10^5 and 146.7 pg/10^5
same,Concentration (IFN-gamma),[11],534.1 pg/mL
same,conc/live cell (IFN-gamma),[11],88.0 pg/10^5
same,Concentration (IFN-gamma),[12],604.8 pg/mL and 492.8 pg/mL and 504.9 pg/mL
same,conc/live cell (IFN-gamma),[12],99.1 pg/10^5 and 80.8 pg/10^5 and 84.1 pg/10^5
CC(C)C[C@H](NC(=O)CNC(=O)[C@H](CC(=O)O)NC(=O)[C@H](CCC(N)=O)NC(=O)CNC(=O)[C@@H]1C[C@@H](O)CN1)C(=O)N[C@@H](C)C(=O)NCC(=O)N1CCC[C@H]1C(=O)N[C@@H](CCCCN)C(=O)O [YY-101] (H-[Hyp]GQDGLAGPK-OH; N-terminus and C-terminus assumed),Concentration (IFN-gamma),[1],2439.1 pg/mL
same,conc/live cell (IFN-gamma),[1],378.6 pg/10^5
same,Concentration (IFN-gamma),[2],2345.3 pg/mL and 2706.6 pg/mL and 2265.5 pg/mL
same,conc/live cell (IFN-gamma),[2],411.5 pg/10^5 and 381.2 pg/10^5 and 343.3 pg/10^5
same,Concentration (IFN-gamma),[3],3133.1 pg/mL
same,conc/live cell (IFN-gamma),[3],507.8 pg/10^5
same,Concentration (IFN-gamma),[4],3435.7 pg/mL and 3322.0 pg/mL and 2641.6 pg/mL
same,conc/live cell (IFN-gamma),[4],536.8 pg/10^5 and 553.7 pg/10^5 and 433.0 pg/10^5
same,Concentration (IFN-gamma),[5],1841.4 pg/mL
same,conc/live cell (IFN-gamma),[5],313.6 pg/10^5
same,Concentration (IFN-gamma),[6],2024.2 pg/mL and 1601.1 pg/mL and 1899.0 pg/mL
same,conc/live cell (IFN-gamma),[6],326.5 pg/10^5 and 307.9 pg/10^5 and 306.3 pg/10^5
same,Concentration (IFN-gamma),[7],2318.4 pg/mL
same,conc/live cell (IFN-gamma),[7],355.2 pg/10^5
same,Concentration (IFN-gamma),[8],2480.1 pg/mL and 2437.0 pg/mL and 2038.3 pg/mL
same,conc/live cell (IFN-gamma),[8],393.7 pg/10^5 and 343.2 pg/10^5 and 328.8 pg/10^5
same,Concentration (IFN-gamma),[9],2654.7 pg/mL
same,conc/live cell (IFN-gamma),[9],406.4 pg/10^5
same,Concentration (IFN-gamma),[10],3058.1 pg/mL and 2593.6 pg/mL and 2312.4 pg/mL
same,conc/live cell (IFN-gamma),[10],509.7 pg/10^5 and 405.2 pg/10^5 and 304.3 pg/10^5
same,Concentration (IFN-gamma),[11],1939.0 pg/mL
same,conc/live cell (IFN-gamma),[11],333.7 pg/10^5
same,Concentration (IFN-gamma),[12],1943.2 pg/mL and 2122.4 pg/mL and 1751.5 pg/mL
same,conc/live cell (IFN-gamma),[12],308.4 pg/10^5 and 342.3 pg/10^5 and 350.3 pg/10^5
same,Concentration (IFN-gamma),[13],20.8 pg/mL
same,conc/live cell (IFN-gamma),[13],4.2 pg/10^5
same,Concentration (IFN-gamma),[14],12.5 pg/mL and 29.1 pg/mL
same,conc/live cell (IFN-gamma),[14],2.4 pg/10^5 and 6.1 pg/10^5
same,Concentration (IFN-gamma),[15],20.8 pg/mL
same,conc/live cell (IFN-gamma),[15],3.9 pg/10^5
same,Concentration (IFN-gamma),[16],12.5 pg/mL and 29.1 pg/mL
same,conc/live cell (IFN-gamma),[16],2.8 pg/10^5 and 5.0 pg/10^5
same,Concentration (IFN-gamma),[17],18.1 pg/mL
same,conc/live cell (IFN-gamma),[17],3.3 pg/10^5
same,Concentration (IFN-gamma),[18],12.5 pg/mL and 23.7 pg/mL
same,conc/live cell (IFN-gamma),[18],2.3 pg/10^5 and 4.3 pg/10^5
same,Concentration (IFN-gamma),[19],50.9 pg/mL
same,conc/live cell (IFN-gamma),[19],8.1 pg/10^5
same,Concentration (IFN-gamma),[20],67.3 pg/mL and 34.4 pg/mL
same,conc/live cell (IFN-gamma),[20],10.5 pg/10^5 and 5.6 pg/10^5
same,Concentration (IFN-gamma),[21],36.8 pg/mL
same,conc/live cell (IFN-gamma),[21],5.6 pg/10^5
same,Concentration (IFN-gamma),[22],49.9 pg/mL and 23.7 pg/mL
same,conc/live cell (IFN-gamma),[22],7.8 pg/10^5 and 3.4 pg/10^5
